The record followed here is patent publication US20240327433A1, “PYRIMIDOPYRAN COMPOUND” (Medshine Discovery Inc., priority 2021, published 2024).

Structures can show the parent of a compound that is named as a salt.

Data set [1] has as its system p-ERK in AGS cells. The experiment in a line: Assay of p-ERK inhibition in AGS cells (HTRF). The format is cell-based. Conditions: Homo sapiens, 3 hours incubation. The method, then: • 1) AGS cells were inoculated in a transparent 96-well cell culture plate, and each well contained […] of cell suspension and 10000 cells. The cell plate was inoculated in a carbon dioxide incubator at 37° C. overnight; • 2) After completion of the incubation, the cell supernatant was discarded. 80 μL of medium containing 0.02% serum was added to each well. The cell plate was incubated in a carbon dioxide incubator at 37° C. overnight; • 3) 2 μL of the compound was weighed and added to 78 μL of the cell medium. After the mixture was mixed thoroughly, 20 μL of the solution of compound was weighed and added to the corresponding well of the cell plate. The cell plate was placed back to the carbon dioxide incubator and incubated for another 3 hours; • 4) After completion of the incubation, the cell supernatant was discarded. 50 μL of 1× cell lysate was added to each well. […] The mixture was incubated at room temperature for at least 4 hours; • 7) After completion of the incubation, HTRF was read with multi-label analyzer: excitation: 320 nm, emission: 615 nm, 665 nm; • 8). IC50 of the compound to be assayed was calculated.

Data set [2] concerns KRAS^G12D AsPC-1. Kind of data set: Anti-cell proliferation effect in tumor cell line AsPC-1 (CellTiter-Glo 3D). In kind it is cell-based. The settings on record: Homo sapiens, ASPC1, AsPC-1, 120 hours. The method, then: (§1) In this assay, the effect of the compounds on inhibiting cell proliferation was studied by detecting the effect of the compounds on the cell activity in vitro in the tumor cell lines AsPC-1 and GP2D.
(§2) The tumor cell lines were cultured in a 37° C., 5% CO2 incubator according to the culture conditions indicated in the culture method. Cells were passaged regularly, and cells in logarithmic growth phase were used for plating.
(§3) Cells were stained with trypan blue and viable cells were counted.
(§4) The cell concentration was adjusted to an appropriate concentration.
(§5) To each well of a ULA culture plate was added 135 μL of cell suspension. To the blank control well was added the same volume of culture medium without cells.
(§6) After plating, the ULA culture plate was immediately centrifuged at room temperature at 1000 rpm for 10 minutes. Note: After completion of the centrifugation, subsequent operations must be processed carefully to avoid unnecessary shocks.
(§7) The culture plate was incubated in a 37° C., 5% CO2, 100% relative humidity incubator overnight.
(§8) 10× compound working solution (10× working solution in DMSO) was formulated, and then to the ULA culture plate was add 15 μL of 10× compound working solution, and to the vehicle control and blank control was added 15 μL of DMSO-cell culture medium mixture, respectively. […]
(§9) The luminescent signal was detected on a 2104 EnVision plate reader. […]

Data set [3] is described as follows: Plasma protein binding (PPB), equilibrium dialysis, CD-1 mouse plasma. In kind it is in vitro ADME. The settings on record: 2 μM, unbound rate. The method, then: (§10) The protein binding rates of the compound in the plasma of CD-1 mouse, Sprague-Dawley rat, Beagle dog, cynomolgus monkey and human were determined by equilibrium dialysis method.
(§11) The plasmas of the above-mentioned five species were formulated to plasma samples with a compound concentration of 2 μM. The plasma samples were placed in a 96-well rapid equilibrium dialysis device, and dialyzed against phosphate buffered saline at 37±1° C. for 4 h. In this assay, warfarin was used as a control compound. The concentrations of analytes in plasma and dialysis buffer were determined by LC-MS/MS mothed.

The nature of data set [4]: PPB assay: recovery rate in the dialysis device (five species plasma). In kind it is in vitro ADME. Conditions: CD-1 (mouse), Sprague-Dawley (rat), Beagle (dog), cynomolgus monkey, human. The method, then: The protein binding rates of the compound in the plasma of CD-1 mouse, Sprague-Dawley rat, Beagle dog, cynomolgus monkey and human were determined by equilibrium dialysis method. The plasmas of the above-mentioned five species were formulated to plasma samples with a compound concentration of 2 μM. The plasma samples were placed in a 96-well rapid equilibrium dialysis device, and dialyzed against phosphate buffered saline at 37±1° C. for 4 h. In this assay, warfarin was used as a control compound. The concentrations of analytes in plasma and dialysis buffer were determined by LC-MS/MS mothed.

Data set [5] is described as follows: Pharmacokinetic study of oral and intravenously injected compounds in CD-1 mouse. In kind it is in vivo. The method, then:
To assay the pharmacokinetics of oral and intravenously injected compounds in CD-1 mouse. The assay compound was mixed with 5% DMSO+95% (10% HP-β-CD) aqueous solution. The mixture was vortexed and sonicated to prepare a clear solution of 0.5 mg/mL (intravenous) or a clear solution of 3 mg/mL (oral). The clear solution was filtered by a microporous membrane for use. […] Whole blood was collected for a certain period of time, and prepared to obtain plasma. Drug concentration was analyzed by LC-MS/MS method, and pharmacokinetic parameters were calculated by Phoenix WinNonlin software (Pharsight, USA).

Data set [6] can be described thus: Plasma protein binding (PPB), equilibrium dialysis, cynomolgus monkey plasma. The format is in vitro ADME. The settings on record: 2 μM, unbound rate. As to the method:
as §10, §11

The nature of data set [7]: Plasma protein binding (PPB), equilibrium dialysis, Sprague-Dawley rat plasma. The format is in vitro ADME. Conditions: 2 μM, unbound rate. As to the method: as §10, §11
Data set [8] relates to KRAS^G12D GP2D. The experiment in a line: Anti-cell proliferation effect in tumor cell line GP2D (CellTiter-Glo 3D). Conditions: 120 hours. The format is cell-based. The method, then: as §1, §2, §3, §4, §5, §6, §7, §8, §9
The nature of data set [9]: Plasma protein binding (PPB), equilibrium dialysis, human plasma. The format is in vitro ADME. The settings on record: 2 μM, unbound rate. As to the method: as §10, §11
A short description of data set [10]: Plasma protein binding (PPB), equilibrium dialysis, Beagle dog plasma. The format is in vitro ADME. The settings on record: 2 μM, unbound rate. As to the method:
as §10, §11

Where [11] appears, read: male, CD-1, plasma, intravenous (IV), about 2 mg/kg.
Setting [12] is: male, CD-1, plasma, oral (PO), about 30 mg/kg.

Turning to `Cc1cc(N)c(F)c(C2Cc3nc(OC[C@@]45CCCN4C[C@H](F)C5)nc(N4CC5CCC(C4)N5)c3CO2)c1C(F)(F)F` (some centres unmarked) [Compound 1 hydrochloride], in data set [1], the IC50 worked out at 45 nM. Further, the IC50 in data set [2] came out at 315 nM. Also, the “Unbound PPB M” value in [3] turned out to be 2.7%. This compound also had a recovery at 4 h, 2 μM in data set [4] of 82.4 to 110%. Further, in data set [5] (setting [11]), the exposure AUC(0-t) was 0.353 µM·h, the C0 came out at 1400 nM, the Vd is 148 L/kg and the clearance was 106 mL/min/kg. Moreover, the half-life in data set [5] (setting [11]) was 1390 min. In data set [5] (setting [12]), the AUC(0-inf) came to 1.35 µM·h and the highest concentration (Cmax) came to 228 nM. In addition, the F in data set [5] (oral (PO), about 30 mg/kg, oral bioavailability) is listed as 25.5%. Further, the “Unbound PPB C” value in data set [6] came to 6.3%. Also, the “Unbound PPB R” value in [7] is reported as 3.0%. The same compound yielded a half-inhibitory concentration (IC50) in [8] of 37 nM. For the same compound, in data set [9], the “Unbound PPB H” value is recorded as 7.0%. The “Unbound PPB D” value in data set [10] worked out at 5.2%.
